In ChEMBL document CHEMBL3994575, “Helixconstraints and amino acid substitution in GLP-1 increase cAMP and insulin secretion but not beta-arrestin 2 signaling” (Eur J Med Chem, 2017):
Positions of bridges follow the written chain, without caps; N, C: chain ends. Residues, ends and D or L forms follow the SMILES beside them.

Key:
[1] = biological target: T1, Glucagon-like peptide 1 receptor (Homo sapiens, UniProt P43220); assay: Displacement of [125I]-GLP (7 to 36 residues) from human GLP1R expressed in CHO cell membranes incubated for 30 mins measured after 10 hrs by scintillation proximity assay
T1 sequence (P43220 whole entry, the tested form may be a part): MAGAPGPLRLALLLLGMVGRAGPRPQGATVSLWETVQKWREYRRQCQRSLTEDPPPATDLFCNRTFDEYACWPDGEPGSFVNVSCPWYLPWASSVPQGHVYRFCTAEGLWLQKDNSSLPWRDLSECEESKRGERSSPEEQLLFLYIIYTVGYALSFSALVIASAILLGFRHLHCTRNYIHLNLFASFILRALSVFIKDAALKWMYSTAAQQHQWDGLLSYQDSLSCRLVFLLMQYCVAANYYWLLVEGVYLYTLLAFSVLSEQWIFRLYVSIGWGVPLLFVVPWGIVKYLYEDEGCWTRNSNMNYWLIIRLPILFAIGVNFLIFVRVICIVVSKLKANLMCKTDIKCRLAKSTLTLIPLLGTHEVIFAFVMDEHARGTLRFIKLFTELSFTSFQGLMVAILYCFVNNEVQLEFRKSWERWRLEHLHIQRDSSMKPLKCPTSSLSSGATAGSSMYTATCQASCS

[2] = biological target: T1, Glucagon-like peptide 1 receptor; assay: Agonist activity at human GLP1R expressed in CHOK1 cells assessed as induction of beta-galactosidase-tagged beta-arrestin2 recruitment incubated for 90 mins by PathHunter enzyme complementation assay; type: cell-based
[3] = biological target: T2, Glucagon-like peptide 1 receptor (Rattus norvegicus, UniProt P32301); assay: Agonist activity at GLP1R in rat INS-1 cells assessed as increase in glucose-stimulated insulin secretion after 1 hr by HTRF assay; type: cell-based
T2 sequence (P32301 whole entry): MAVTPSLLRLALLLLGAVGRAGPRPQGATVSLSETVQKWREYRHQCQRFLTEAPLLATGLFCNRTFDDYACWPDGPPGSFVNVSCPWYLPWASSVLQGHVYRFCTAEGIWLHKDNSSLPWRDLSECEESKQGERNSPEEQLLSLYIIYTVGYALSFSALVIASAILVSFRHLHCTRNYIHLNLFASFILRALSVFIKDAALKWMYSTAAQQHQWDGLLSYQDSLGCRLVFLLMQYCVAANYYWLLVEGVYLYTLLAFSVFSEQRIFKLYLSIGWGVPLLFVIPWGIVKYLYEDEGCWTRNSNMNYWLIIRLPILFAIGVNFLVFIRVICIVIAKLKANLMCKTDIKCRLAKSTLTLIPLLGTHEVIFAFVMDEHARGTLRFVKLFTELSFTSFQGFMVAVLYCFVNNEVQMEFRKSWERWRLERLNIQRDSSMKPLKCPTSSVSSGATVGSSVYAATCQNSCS

[4] = biological target: T1, Glucagon-like peptide 1 receptor; assay: Agonist activity at human GLP1R expressed in CHO cells assessed as cAMP accumulation incubated for 30 mins by LANCE assay; type: functional, cell-based

Row | Compound | Ki [1] | EC50 [2] | EC50 [3] | EC50 [4]
1 | CC[C@H](C)[C@H](NC(=O)[C@H](Cc1ccccc1)NC(=O)[C@H](CCC(=O)O)NC(=O)[C@H](CCCCN)NC(=O)[C@H](C)NC(=O)[C@H](C)NC(=O)[C@H](CCC(N)=O)NC(=O)CNC(=O)[C@@H]1CCCN1C(=O)[C@H](CC(C)C)NC(=O)[C@H](Cc1ccc(O)cc1)NC(=O)[C@H](CO)NC(=O)[C@H](CO)NC(=O)[C@@H](NC(=O)[C@H](CC(=O)O)NC(=O)[C@H](CO)NC(=O)[C@@H](NC(=O)[C@H](Cc1ccccc1)NC(=O)[C@@H](NC(=O)CNC(=O)[C@H](CCC(=O)O)NC(=O)[C@H](C)NC(=O)[C@@H](N)Cc1cnc[nH]1)[C@@H](C)O)[C@@H](C)O)C(C)C)C(=O)N[C@H]1CCCCNC(=O)C[C@@H](C(=O)NCC(=O)N[C@@H](CCCNC(=N)N)C(=O)NCC(N)=O)NC(=O)[C@H](C(C)C)NC(=O)[C@H](CC(C)C)NC(=O)[C@H](Cc2c[nH]c3ccccc23)NC1=O (H-HAEGTFTSDVSSYLPGQAAKEFIKWLVDGRG-NH2; lactam 24-28) | > 50 nM | > 1000 nM | 130 nM | 20 nM
2 | CC[C@H](C)[C@H](NC(=O)[C@H](Cc1ccccc1)NC(=O)[C@H](CCC(=O)O)NC(=O)[C@H](CCCCN)NC(=O)[C@H](C)NC(=O)[C@H](C)NC(=O)[C@H](CCC(N)=O)NC(=O)[C@H](C)NC(=O)[C@H](CCC(=O)O)NC(=O)[C@@H]1CC(=O)NCCCC[C@H](NC(=O)[C@H](CC(=O)O)NC(=O)[C@H](CO)NC(=O)[C@@H](NC(=O)[C@H](Cc2ccccc2)NC(=O)[C@@H](NC(=O)CNC(=O)[C@H](CCC(=O)O)NC(=O)[C@H](C)NC(=O)[C@@H](N)Cc2cnc[nH]2)[C@@H](C)O)[C@@H](C)O)C(=O)N[C@@H](CO)C(=O)N[C@@H](CO)C(=O)N[C@@H](Cc2ccc(O)cc2)C(=O)N1)C(=O)N[C@H]1CCCCNC(=O)C[C@@H](C(=O)NCC(=O)N[C@@H](CCCNC(=N)N)C(=O)NCC(N)=O)NC(=O)[C@H](C(C)C)NC(=O)[C@H](CC(C)C)NC(=O)[C@H](Cc2c[nH]c3ccccc23)NC1=O (H-HAEGTFTSDKSSYDEAQAAKEFIKWLVDGRG-NH2; lactam 10-14, 24-28) | 1.4 nM | 11 nM | 0.25 nM | 0.004 nM
3 | CC[C@H](C)[C@H](NC(=O)[C@H](Cc1ccccc1)NC(=O)[C@H](CCC(=O)O)NC(=O)[C@H](CCCCN)NC(=O)[C@H](C)NC(=O)[C@H](C)NC(=O)[C@H](CCC(N)=O)NC(=O)CNC(=O)[C@H](CCC(=O)O)NC(=O)[C@H](CC(C)C)NC(=O)[C@H](Cc1ccc(O)cc1)NC(=O)[C@@H]1CC(=O)NCCCC[C@H](NC(=O)[C@@H](NC(=O)[C@H](Cc2ccccc2)NC(=O)[C@@H](NC(=O)CNC(=O)[C@H](CCC(=O)O)NC(=O)[C@H](C)NC(=O)[C@@H](N)Cc2cnc[nH]2)[C@@H](C)O)[C@@H](C)O)C(=O)N[C@@H](CC(=O)O)C(=O)N[C@@H](C(C)C)C(=O)N[C@@H](CO)C(=O)N1)C(=O)N[C@@H](C)C(=O)N[C@@H](Cc1c[nH]c2ccccc12)C(=O)N[C@@H](CC(C)C)C(=O)N[C@H](C(=O)N[C@@H](CCCCN)C(=O)NCC(=O)N[C@@H](CCCNC(=N)N)C(=O)NCC(N)=O)C(C)C (H-HAEGTFTKDVSDYLEGQAAKEFIAWLVKGRG-NH2; lactam 8-12) |  |  | 50 nM | 
4 | CC[C@H](C)[C@H](NC(=O)[C@H](Cc1ccccc1)NC(=O)[C@H](CCC(=O)O)NC(=O)[C@H](CCCCN)NC(=O)[C@H](C)NC(=O)[C@H](C)NC(=O)[C@H](CCC(N)=O)NC(=O)CNC(=O)[C@H](CCC(=O)O)NC(=O)[C@H](CC(C)C)NC(=O)[C@H](Cc1ccc(O)cc1)NC(=O)[C@H](CO)NC(=O)[C@H](Cc1ccc(O)cc1)NC(=O)[C@@H](NC(=O)[C@H](CC(=O)O)NC(=O)[C@H](CO)NC(=O)[C@@H](NC(=O)[C@H](Cc1ccccc1)NC(=O)[C@@H](NC(=O)CNC(=O)[C@H](CCC(=O)O)NC(=O)[C@H](C)NC(=O)[C@@H](N)Cc1cnc[nH]1)[C@@H](C)O)[C@@H](C)O)C(C)C)C(=O)N[C@@H](C)C(=O)N[C@@H](Cc1c[nH]c2ccccc12)C(=O)N[C@@H](CC(C)C)C(=O)N[C@H](C(=O)N[C@@H](CCCCN)C(=O)NCC(=O)N[C@@H](CCCNC(=N)N)C(=O)NCC(N)=O)C(C)C |  |  | 16 nM | 
5 | CC[C@H](C)[C@H](NC(=O)[C@H](Cc1ccccc1)NC(=O)[C@H](CCC(=O)O)NC(=O)[C@H](CCCCN)NC(=O)[C@H](C)NC(=O)[C@H](C)NC(=O)[C@H](CCC(N)=O)NC(=O)[C@H](C)NC(=O)[C@H](CCC(=O)O)NC(=O)[C@H](CC(C)C)NC(=O)[C@H](Cc1ccc(O)cc1)NC(=O)[C@H](CO)NC(=O)[C@H](CO)NC(=O)[C@H](Cc1ccc(O)cc1)NC(=O)[C@H](CC(=O)O)NC(=O)[C@H](CO)NC(=O)[C@@H](NC(=O)[C@H](Cc1ccccc1)NC(=O)[C@@H](NC(=O)CNC(=O)[C@H](CCC(=O)O)NC(=O)[C@H](C)NC(=O)[C@@H](N)Cc1cnc[nH]1)[C@@H](C)O)[C@@H](C)O)C(=O)N[C@H]1CCCCNC(=O)C[C@@H](C(=O)NCC(=O)N[C@@H](CCCNC(=N)N)C(=O)NCC(N)=O)NC(=O)[C@H](C(C)C)NC(=O)[C@H](CC(C)C)NC(=O)[C@H](Cc2c[nH]c3ccccc23)NC1=O (H-HAEGTFTSDYSSYLEAQAAKEFIKWLVDGRG-NH2; lactam 24-28) | 0.47 nM | 4.6 nM |  | 0.011 nM
